In patent US10160755B2 (Plexxikon Inc., priority 2015, dated 2018) one finds IC50 data, which are given here for 21 compounds.

Structures are written as SMILES.

Test [1] concerns the target T1, FLT3-ITD (Homo sapiens, UniProt P36888).
T1 construct: FLT3-ITD; Invitrogen #PV6190
T1 sequence (P36888 1-993): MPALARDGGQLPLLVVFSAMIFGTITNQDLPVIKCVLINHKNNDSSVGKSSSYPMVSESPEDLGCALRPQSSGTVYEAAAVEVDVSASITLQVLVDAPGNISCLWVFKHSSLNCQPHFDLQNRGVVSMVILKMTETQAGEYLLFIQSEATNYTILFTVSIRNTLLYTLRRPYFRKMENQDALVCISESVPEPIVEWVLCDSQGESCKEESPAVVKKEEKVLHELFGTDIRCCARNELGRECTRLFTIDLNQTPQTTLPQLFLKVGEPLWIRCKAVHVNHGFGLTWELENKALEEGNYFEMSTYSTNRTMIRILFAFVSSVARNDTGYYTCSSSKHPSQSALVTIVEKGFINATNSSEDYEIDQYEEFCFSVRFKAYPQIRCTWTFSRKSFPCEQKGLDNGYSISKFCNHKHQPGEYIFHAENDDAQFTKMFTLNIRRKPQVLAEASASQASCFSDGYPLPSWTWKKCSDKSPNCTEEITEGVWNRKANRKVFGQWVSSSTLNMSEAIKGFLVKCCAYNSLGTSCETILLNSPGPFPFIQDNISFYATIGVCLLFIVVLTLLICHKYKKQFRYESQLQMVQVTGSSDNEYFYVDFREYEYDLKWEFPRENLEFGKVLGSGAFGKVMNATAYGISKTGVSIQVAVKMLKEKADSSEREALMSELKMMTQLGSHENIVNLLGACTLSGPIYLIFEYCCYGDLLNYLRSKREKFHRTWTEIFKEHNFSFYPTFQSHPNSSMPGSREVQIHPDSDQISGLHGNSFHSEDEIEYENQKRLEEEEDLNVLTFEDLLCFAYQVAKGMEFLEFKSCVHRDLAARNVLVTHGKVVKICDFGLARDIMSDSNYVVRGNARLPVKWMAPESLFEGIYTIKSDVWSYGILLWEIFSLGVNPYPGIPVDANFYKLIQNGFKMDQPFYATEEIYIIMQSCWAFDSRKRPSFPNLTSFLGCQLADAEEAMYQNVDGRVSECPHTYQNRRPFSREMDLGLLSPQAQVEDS
Kind of test: FLT3-ITD biochemical kinase assay (AlphaScreen). In outline:
(§1)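 Read-out is AlphaScreen at 580 nm, where reduced substrate tyrosine phosphorylation lowers bead proximity signal. Reactions contain 30 nM biotinylated poly(Glu4-Tyr) and ATP at 10 μM (D835Y) or 100 μM (ITD); PY20 acceptor beads 10 μg/mL final, 60 min at room temperature before reading.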

For test [2], the target named is T2, FLT3-D835Y (Homo sapiens, UniProt P36888, D835Y).
T2 construct: purchased Invitrogen PV3967
T2 sequence (P36888 27-993 D835Y): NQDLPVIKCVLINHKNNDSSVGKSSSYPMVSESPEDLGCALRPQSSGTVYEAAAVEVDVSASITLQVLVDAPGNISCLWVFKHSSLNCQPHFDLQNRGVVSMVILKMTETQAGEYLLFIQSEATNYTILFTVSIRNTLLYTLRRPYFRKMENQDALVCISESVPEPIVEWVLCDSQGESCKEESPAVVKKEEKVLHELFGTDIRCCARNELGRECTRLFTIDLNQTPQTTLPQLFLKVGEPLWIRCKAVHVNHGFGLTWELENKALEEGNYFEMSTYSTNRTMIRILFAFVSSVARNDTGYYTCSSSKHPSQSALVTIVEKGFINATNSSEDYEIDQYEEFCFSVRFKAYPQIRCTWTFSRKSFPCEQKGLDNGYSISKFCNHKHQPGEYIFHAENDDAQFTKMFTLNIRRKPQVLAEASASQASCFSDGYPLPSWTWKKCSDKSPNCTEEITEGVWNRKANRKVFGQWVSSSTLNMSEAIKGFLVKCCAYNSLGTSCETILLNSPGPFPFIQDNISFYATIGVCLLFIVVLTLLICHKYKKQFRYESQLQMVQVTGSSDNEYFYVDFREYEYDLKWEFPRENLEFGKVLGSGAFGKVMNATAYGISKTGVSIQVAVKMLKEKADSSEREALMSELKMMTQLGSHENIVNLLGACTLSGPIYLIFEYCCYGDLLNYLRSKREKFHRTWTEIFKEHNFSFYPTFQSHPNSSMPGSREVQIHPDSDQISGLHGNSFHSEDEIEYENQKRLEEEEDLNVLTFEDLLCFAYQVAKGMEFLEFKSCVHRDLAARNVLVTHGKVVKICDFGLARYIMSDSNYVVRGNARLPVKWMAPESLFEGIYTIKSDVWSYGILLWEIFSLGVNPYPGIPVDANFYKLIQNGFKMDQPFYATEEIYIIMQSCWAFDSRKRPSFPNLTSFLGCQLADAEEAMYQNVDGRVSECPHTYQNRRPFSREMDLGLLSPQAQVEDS
Kind of test: FLT3-D835Y biochemical kinase assay (AlphaScreen). In outline: as §1
In general terms: Bead proximity is the source of the signal in Alpha formats.

One may read the IC50 as the concentration that gives 50% inhibition. A lower IC50 goes with higher potency. For `COc1cc(C#Cc2cnc3[nH]cc(-c4ccc5ncn(C(C)(C)C)c5c4)c3c2)ccn1` [P-240, 1-(tert-butyl)-6-(5-((2-methoxypyridin-4-yl)ethynyl)-1H-pyrrolo[2,3-b]pyridin-3-yl)-1H-benzo[d]imidazole], the IC50 in test [1] and in test [2] was 0.0001 to 1 µM throughout.

For the compound `COc1ncc(-c2cnc3[nH]cc(-c4ccc5ncn(C(C)(C)C)c5c4)c3n2)cn1` [P-263, 7-(3-tert-butylbenzimidazol-5-yl)-2-(2-methoxypyrimidin-5-yl)-5H-pyrrolo[2,3-b]pyrazine], the IC50 in test [1] and in test [2] was 0.0001 to 1 µM each time.

On to `C#Cc1cnc2[nH]cc(-c3ccc4ncn(C(C)(C)C)c4c3)c2n1` [P-259, 7-(3-tert-butylbenzimidazol-5-yl)-2-ethynyl-5H-pyrrolo[2,3-b]pyrazine], for which the IC50 in test [1] and in test [2] was 0.0001 to 1 µM in each case.

As for `CC(C)(CO)n1cnc2ccc(-c3c[nH]c4ncc(-c5cccc(NS(C)(=O)=O)c5)nc34)cc21` [P-115, N-[3-[7-[3-(2-hydroxy-1,1-dimethyl-ethyl)benzimidazol-5-yl]-5H-pyrrolo[2,3-b]pyrazin-2-yl]phenyl]methanesulfonamide], the IC50 in test [1] and in test [2] was 0.0001 to 1 µM each time.

For the compound `O=S1(=O)CCCCN1c1cccc(-c2cnc3[nH]cc(-c4ccc5ncn(C6CCCNC6)c5c4)c3n2)c1` (stereo not drawn) [P-253, 2-[3-[7-[3-(3-piperidyl)benzimidazol-5-yl]-5H-pyrrolo[2,3-b]pyrazin-2-yl]phenyl]thiazinane 1,1-dioxide], the IC50 in test [1] and in test [2] was 0.0001 to 1 µM in each case.

For the compound `CC(C)(C)n1cnc2ccc(-c3c[nH]c4ncc(-c5cccc(N6CCCCS6(=O)=O)c5)cc34)cc21` [P-221, 2-[3-[3-(3-tert-butylbenzimidazol-5-yl)-1H-pyrrolo[2,3-b]pyridin-5-yl]phenyl]thiazinane 1,1-dioxide], the IC50 in test [1] and in test [2] was 0.0001 to 1 µM throughout.

Consider `COc1cnc2[nH]cc(-c3ccc4ncn(-c5ccc(F)cc5)c4c3)c2c1` [P-103, 1-(4-fluorophenyl)-6-(5-methoxy-1H-pyrrolo[2,3-b]pyridin-3-yl)benzimidazole], for which the IC50 in test [1] and in test [2] was 0.0001 to 1 µM in each case.

For the compound `FC(F)(F)Oc1cccc(C#Cc2cnc3[nH]cc(-c4ccc5ncn(C6CCCNC6)c5c4)c3n2)c1` (stereo not drawn) [P-246, 7-[3-(3-piperidyl)benzimidazol-5-yl]-2-[2-[3-(trifluoromethoxy)phenyl]ethynyl]-5H-pyrrolo[2,3-b]pyrazine], the IC50 in test [1] and in test [2] was 0.0001 to 1 µM each time.

As for `COc1cc(-c2cnc3[nH]cc(-c4ccc5ncn(C6CCCN(C(C)=O)C6)c5c4)c3n2)ccn1` (stereo not drawn) [P-260, 1-[3-[6-[2-(2-methoxy-4-pyridyl)-5H-pyrrolo[2,3-b]pyrazin-7-yl]benzimidazol-1-yl]-1-piperidyl]ethanone], the 50% inhibitory concentration (IC50) in test [1] and in test [2] was 0.0001 to 1 µM each time.

For `COc1ncccc1C#Cc1cnc2[nH]cc(-c3ccc4ncn(C(C)(C)C)c4c3)c2n1` [P-250, 7-(3-tert-butylbenzimidazol-5-yl)-2-[2-(2-methoxy-3-pyridyl)ethynyl]-5H-pyrrolo[2,3-b]pyrazine], the IC50 in test [1] and in test [2] was 0.0001 to 1 µM throughout.

For the compound `CN(c1cccc(-c2cnc3[nH]cc(-c4ccc5ncn(C)c5c4)c3c2)c1)S(C)(=O)=O` [P-120, N-methyl-N-[3-[3-(3-methylbenzimidazol-5-yl)-1H-pyrrolo[2,3-b]pyridin-5-yl]phenyl]methanesulfonamide], the IC50 in test [1] and in test [2] was 0.0001 to 1 µM throughout.

For `N#Cc1cccc(-c2cnc3[nH]cc(-c4ccc5ncn(-c6ccc(F)c(Cl)c6)c5c4)c3c2)c1` [P-210, 3-[3-[3-(3-chloro-4-fluoro-phenyl)benzimidazol-5-yl]-1H-pyrrolo[2,3-b]pyridin-5-yl]benzonitrile], the IC50 in test [1] and in test [2] was 0.0001 to 1 µM throughout.

With `CC(C)(C)n1cnc2ccc(-c3c[nH]c4ncc(-c5cnn(CC(F)(F)F)c5)cc34)cc21` [P-252, 1-tert-butyl-6-[5-[1-(2,2,2-trifluoroethyl)pyrazol-4-yl]-1H-pyrrolo[2,3-b]pyridin-3-yl]benzimidazole], the IC50 in test [1] and in test [2] was 0.0001 to 1 µM in each case.

For the compound `CC(C)(C)n1cnc2ccc(-c3c[nH]c4ncc(-c5cccc(S(=O)(=O)N6CCCC6)c5)cc34)cc21` [P-220, 1-tert-butyl-6-[5-(3-pyrrolidin-1-ylsulfonylphenyl)-1H-pyrrolo[2,3-b]pyridin-3-yl]benzimidazole], the IC50 in test [1] and in test [2] was 0.0001 to 1 µM each time.

`CC(C)(C)n1cnc2ccc(-c3c[nH]c4ncc(-c5cccc(NS(C)(=O)=O)c5)nc34)cc21` [P-097, N-[3-[7-(3-tert-butylbenzimidazol-5-yl)-5H-pyrrolo[2,3-b]pyrazin-2-yl]phenyl]methanesulfonamide]: the IC50 in test [1] and in test [2] was 0.0001 to 1 µM in each case.

For the compound `CC(C)(C)n1cnc2ccc(-c3c[nH]c4ncc(-c5cccc(N6CCCCS6(=O)=O)c5)nc34)cc21` [P-227, 2-[3-[7-(3-tert-butylbenzimidazol-5-yl)-5H-pyrrolo[2,3-b]pyrazin-2-yl]phenyl]thiazinane 1,1-dioxide], the IC50 in test [1] and in test [2] was 0.0001 to 1 µM in each case.

As to `CC(C)S(=O)(=O)Nc1cccc(-c2cnc3[nH]cc(-c4ccc5ncn(C(C)(C)C)c5c4)c3n2)c1` [P-232, N-[3-[7-(3-tert-butylbenzimidazol-5-yl)-5H-pyrrolo[2,3-b]pyrazin-2-yl]phenyl]propane-2-sulfonamide], the IC50 in test [1] and in test [2] was 0.0001 to 1 µM each time.

Take `c1cc(-c2cnc3[nH]cc(-c4ccc5ncn(C6CCCNC6)c5c4)c3n2)cc(N2CCOCC2)n1` (stereo not drawn) [P-262, 4-[4-[7-[3-(3-piperidyl)benzimidazol-5-yl]-5H-pyrrolo[2,3-b]pyrazin-2-yl]-2-pyridyl]morpholine]: the IC50 in test [1] and in test [2] was 0.0001 to 1 µM throughout.

On to `O=C(Nc1cccc(F)c1)c1cnc2[nH]cc(-c3ccc4ncn(C5CCCNC5)c4c3)c2c1` (stereo not drawn) [P-178, N-(3-fluorophenyl)-3-[3-(3-piperidyl)benzimidazol-5-yl]-1H-pyrrolo[2,3-b]pyridine-5-carboxamide], for which the IC50 in test [1] and in test [2] was 0.0001 to 1 µM in each case.

As for `CC(C)S(=O)(=O)Nc1cccc(-c2cnc3[nH]cc(-c4ccc5ncn(C6CCCNC6)c5c4)c3c2)c1` (stereo not drawn) [P-215, N-[3-[3-[3-(3-piperidyl)benzimidazol-5-yl]-1H-pyrrolo[2,3-b]pyridin-5-yl]phenyl]propane-2-sulfonamide], the IC50 in test [1] and in test [2] was 0.0001 to 1 µM throughout.

Consider `COc1cc(-c2cnc3[nH]cc(-c4ccc5ncn(C6CCCN(C)C6)c5c4)c3n2)ccn1` (stereo not drawn) [P-271, 2-(2-methoxy-4-pyridyl)-7-[3-(1-methyl-3-piperidyl)benzimidazol-5-yl]-5H-pyrrolo[2,3-b]pyrazine], for which the IC50 in test [1] and in test [2] was 0.0001 to 1 µM throughout.
